27 molecules from patent publication US7015228B2, “4-amino-2-(2-pyridyl)pyrimidines as microbicidal active substances” (Ciba Specialty Chemicals Corporation, priority 2001, dated 2006) can be followed below.

What all share (experiment): Determination of the bactericidal activity (logarithmic reduction in organism count)
Holding throughout (details): contact for 30 minutes at a substance concentration of 120 μg/mL

The test system of test [1] is S. aureus ATCC 6538. The format is cell-based, Staphylococcus aureus. As to the method:
(§1) Determination of the Bactericidal Activity of Selected Compounds
(§2) Casein-soybean flour-peptone broth for preparation of pre-cultures of test bacteria
(§3) Examples of Test Organisms:
(§4) • Staphylococcus aureus ATCC 6538 • Escherichia coli ATCC 10536 • Salmonella choleraesuis ATCC 10708 Procedure:
(§5) The test substances are dissolved in dimethyl sulfoxide (DMSO) and tested in a concentration of 120 μg/ml.
(§6) Bacteria are incubated overnight in CASO broth and adjusted to an organism count of 1–5×10^5 CFU/ml using 0.85% sodium chloride solution.
(§7) The test substances are pre-pipetted into microtitre plates in amounts of 8 μl per well.
(§8) The adjusted test organism suspensions are added in amounts of 192 μl per well to the test substances and mixed. After defined contact times, the test batches are mixed, an aliquot is withdrawn and diluted in several steps in a dilution series of 1:10 in a suitable inactivation medium.
The test plates are incubated for 24 hours at 37° C.
After incubation, the growth is determined on the basis of the turbidity of the test batches (optical density) at 620 nm in a microplate reader.
(§9) One microtitre plate is used for each test organism.
(§10) All the substances are tested in duplicate.

The subject of test [2] is S. choleraesuis ATCC 10708. The format is cell-based, Salmonella choleraesuis. As to the method: as §1, §2, §3, §4, §5, §6, §7, §8
The test plates are incubated for 24 hours at 37° C. […]
as §9, §10

Test [3] has as its system E. coli NCTC 8196. The format is cell-based, Escherichia coli.

Bounds are passed on as bounds.

For `NCCCCCCCCCNc1cc(C(F)(F)F)nc(-c2ccccn2)n1` [Compound of formula 30], the “Logarithmic reduction in organism count, S. aureus ATCC 6538” value in test [1] is listed as “≦1 log”. Besides, in test [2], the “Logarithmic reduction in organism count, S. choleraesuis ATCC 10708” value is recorded as “≦1 log”. For the same molecule, the “Logarithmic reduction in organism count, E. coli NCTC 8196” value in test [3] is <1 log.
In the case of `CCCCCCCCCCCCNc1cc(C(C)(C)C)nc(-c2ccccn2)n1` [Compound of formula 60], in test [1], the “Logarithmic reduction in organism count, S. aureus ATCC 6538” value is listed as <1 log. Further, in test [2], the “Logarithmic reduction in organism count, S. choleraesuis ATCC 10708” value was <1 log. The “Logarithmic reduction in organism count, E. coli NCTC 8196” value in test [3] is recorded as <1 log.
As for `CCCCCCCCCCCCCCCNc1nc(-c2ccccn2)nc(C)c1CC` [Compound of formula 90], in test [1], the “Logarithmic reduction in organism count, S. aureus ATCC 6538” value was determined as 2 log. For the same molecule, the “Logarithmic reduction in organism count, S. choleraesuis ATCC 10708” value in test [2] is given as <1 log. Moreover, the “Logarithmic reduction in organism count, E. coli NCTC 8196” value in test [3] is recorded as <1 log.
As for `CCCCCCCCCNc1nc(-c2ccccn2)nc(C)c1C(C)C` [Compound of formula 70], the “Logarithmic reduction in organism count, S. aureus ATCC 6538” value in test [1] is “≦1 log”. For the same molecule, the “Logarithmic reduction in organism count, S. choleraesuis ATCC 10708” value in test [2] is listed as <1 log. Moreover, the “Logarithmic reduction in organism count, E. coli NCTC 8196” value in test [3] was “≦1 log”.
As to `CCCCCCCNc1cc(C(F)(F)F)nc(-c2ccccn2)n1` [Compound of formula 32], in test [1], the “Logarithmic reduction in organism count, S. aureus ATCC 6538” value is reported as <1 log. Besides, in test [2], the “Logarithmic reduction in organism count, S. choleraesuis ATCC 10708” value is on record as “≦1 log”. Besides, the “Logarithmic reduction in organism count, E. coli NCTC 8196” value in test [3] was <1 log.
With `COCCc1cc(NCCCCCCCCN)nc(-c2ccccn2)n1` [Compound of formula 77], the “Logarithmic reduction in organism count, S. aureus ATCC 6538” value in test [1] is >3 log. Besides, the “Logarithmic reduction in organism count, S. choleraesuis ATCC 10708” value in test [2] is listed as <1 log. For the same molecule, in test [3], the “Logarithmic reduction in organism count, E. coli NCTC 8196” value is given as <1 log.
`Cc1cc(NCCCCCCCCCCCCN)nc(-c2ccccn2)n1` [Compound of formula 19]: in test [1], the “Logarithmic reduction in organism count, S. aureus ATCC 6538” value is recorded as 2–3 log. For the same molecule, the “Logarithmic reduction in organism count, S. choleraesuis ATCC 10708” value in test [2] is given as <1 log. The “Logarithmic reduction in organism count, E. coli NCTC 8196” value in test [3] is listed as “≦1 log”.
Turning to `CCc1c(C)nc(-c2ccccn2)nc1NCCCCCCCCCCCCN` [Compound of formula 7], the “Logarithmic reduction in organism count, S. aureus ATCC 6538” value in test [1] was 2 log. Further, the “Logarithmic reduction in organism count, S. choleraesuis ATCC 10708” value in test [2] was <1 log. The “Logarithmic reduction in organism count, E. coli NCTC 8196” value in test [3] was “≦1 log”.
Take `CCCCCCCCNc1nc(-c2ccccn2)nc(C)c1C(C)C` [Compound of formula 69]: the “Logarithmic reduction in organism count, S. aureus ATCC 6538” value in test [1] is reported as 1–2 log. The “Logarithmic reduction in organism count, S. choleraesuis ATCC 10708” value in test [2] is “≦1 log”. Moreover, the “Logarithmic reduction in organism count, E. coli NCTC 8196” value in test [3] is <1 log.
For `CCCCCCCCNc1cc(C(F)(F)F)nc(-c2ccccn2)n1` [Compound of formula 33], in that order: <1 log, <1 log and <1 log.
The like results for `CCCCCCCCCNc1cc(C(C)(C)C)nc(-c2ccccn2)n1` [Compound of formula 58] were, in that order, 1 log, “≦1 log” and “≦1 log”.
In the case of `CC(C)(C)c1cc(NCCc2ccccc2)nc(-c2ccccn2)n1` [Compound of formula 63], in test [1], the “Logarithmic reduction in organism count, S. aureus ATCC 6538” value is listed as <1 log. The “Logarithmic reduction in organism count, S. choleraesuis ATCC 10708” value in test [2] is reported as <1 log. Further, in test [3], the “Logarithmic reduction in organism count, E. coli NCTC 8196” value is “≦1 log”.
For the molecule `CCCCCCCCCCNc1cc(CCOC)nc(-c2ccccn2)n1` [Compound of formula 83], the “Logarithmic reduction in organism count, S. aureus ATCC 6538” value in test [1] amounted to 2 log. Also, the “Logarithmic reduction in organism count, S. choleraesuis ATCC 10708” value in test [2] is <1 log. In test [3], the “Logarithmic reduction in organism count, E. coli NCTC 8196” value is listed as “≦1 log”.
Take `CCCCCCCCCCNc1cc(C(C)C)nc(-c2ccccn2)n1` [Compound of formula 47]: the “Logarithmic reduction in organism count, S. aureus ATCC 6538” value in test [1] is 1 log. Moreover, the “Logarithmic reduction in organism count, S. choleraesuis ATCC 10708” value in test [2] is <1 log. Besides, the “Logarithmic reduction in organism count, E. coli NCTC 8196” value in test [3] is <1 log.
As for `CCCCCCCCCCCCCCCNc1cc(C)nc(-c2ccccn2)n1` [Compound of formula 93], the “Logarithmic reduction in organism count, S. aureus ATCC 6538” value in test [1] worked out at 2 log. Further, the “Logarithmic reduction in organism count, S. choleraesuis ATCC 10708” value in test [2] is listed as <1 log. Moreover, the “Logarithmic reduction in organism count, E. coli NCTC 8196” value in test [3] is “≦1 log”.
For `CCCCCCCCCCCCNc1cc(C(C)C)nc(-c2ccccn2)n1` [Compound of formula 48], in that order: 1 log, <1 log and <1 log.
For `CCCCCCCNc1nc(-c2ccccn2)nc(C)c1C(C)C` [Compound of formula 68], in that order: “≦1 log”, <1 log and <1 log.
For `CCCCCCCCNc1cc(C)nc(-c2ccccn2)n1` [Compound of formula 21], in that order: 1–2 log, <1 log and <1 log.
Consider `CCCCCCCCCNc1nc(-c2ccccn2)nc(C)c1CC` [Compound of formula 10], for which the “Logarithmic reduction in organism count, S. aureus ATCC 6538” value in test [1] is listed as 1–2 log. In test [2], the “Logarithmic reduction in organism count, S. choleraesuis ATCC 10708” value is recorded as <1 log. Besides, the “Logarithmic reduction in organism count, E. coli NCTC 8196” value in test [3] is <1 log.
In the case of `CCCCCCCCCCCCNc1nc(-c2ccccn2)nc(C)c1CC` [Compound of formula 12], the “Logarithmic reduction in organism count, S. aureus ATCC 6538” value in test [1] is given as 1–2 log. The “Logarithmic reduction in organism count, S. choleraesuis ATCC 10708” value in test [2] is given as <1 log. Besides, the “Logarithmic reduction in organism count, E. coli NCTC 8196” value in test [3] was <1 log.
`CCCCCCCCCCNc1nc(-c2ccccn2)nc(C)c1CC` [Compound of formula 11]: the “Logarithmic reduction in organism count, S. aureus ATCC 6538” value in test [1] was 1–2 log. The “Logarithmic reduction in organism count, S. choleraesuis ATCC 10708” value in test [2] is <1 log. The “Logarithmic reduction in organism count, E. coli NCTC 8196” value in test [3] is reported as “≦1 log”.
Consider `CCCCCCCCCCCCNc1cc(C)nc(-c2ccccn2)n1` [Compound of formula 24], for which the “Logarithmic reduction in organism count, S. aureus ATCC 6538” value in test [1] is on record as 2 log. Further, the “Logarithmic reduction in organism count, S. choleraesuis ATCC 10708” value in test [2] is <1 log. Further, the “Logarithmic reduction in organism count, E. coli NCTC 8196” value in test [3] is listed as “≦1 log”.
The like results for `Cc1nc(-c2ccccn2)nc(NCCCCCCCCN)c1C(C)C` [Compound of formula 65] were, in that order, 3 log, <1 log and <1 log.
Take `CCCCCCCCCCNc1cc(C)nc(-c2ccccn2)n1` [Compound of formula 23]: in test [1], the “Logarithmic reduction in organism count, S. aureus ATCC 6538” value is on record as 3 log. In addition, the “Logarithmic reduction in organism count, S. choleraesuis ATCC 10708” value in test [2] was <1 log. Besides, the “Logarithmic reduction in organism count, E. coli NCTC 8196” value in test [3] is <1 log.
Take `CCCCCCCNc1cc(C(C)C)nc(-c2ccccn2)n1` [Compound of formula 44]: the “Logarithmic reduction in organism count, S. aureus ATCC 6538” value in test [1] is 1–2 log. The “Logarithmic reduction in organism count, S. choleraesuis ATCC 10708” value in test [2] is reported as <1 log. Further, in test [3], the “Logarithmic reduction in organism count, E. coli NCTC 8196” value is on record as <1 log.
As to `CCCCCCCCCCCNc1cc(C(C)C)nc(-c2ccccn2)n1` [Compound of formula 98], in test [1], the “Logarithmic reduction in organism count, S. aureus ATCC 6538” value is 1 log. Further, the “Logarithmic reduction in organism count, S. choleraesuis ATCC 10708” value in test [2] is recorded as 2–3 log. Besides, the “Logarithmic reduction in organism count, E. coli NCTC 8196” value in test [3] is 1–2 log.
For `COCCc1cc(NCCCCCCCCCN)nc(-c2ccccn2)n1` [Compound of formula 78], in that order: >3 log, <1 log and “≦1 log”.
